We go through eleven compounds from US6492397B1, “N-arylheteroarylalkyl imidazol-2-one compounds for treatment of arteriosclerosis” (Pharmacia Corporation, priority 1991, dated 2002).

The target of series [1] is smooth muscle angiotensin II receptor. Nature of the series: Assay A: Angiotensin II Binding Activity (125I-angiotensin II displacement, rat uterine membrane preparation). The conditions noted are these: 50% displacement of specifically bound 125I-AII, rat uterine membranes, 25° C., 60 min. The protocol: Assay A: Angiotensin II Binding Activity
Compounds of the invention were tested for ability to bind to the smooth muscle angiotensin II receptor using a rat uterine membrane preparation. […] Other chemicals were obtained from Sigma Chemical Co. This assay was carried out according to the method of Douglas et al [Endocrinology, 106, 120-124 (1980)]. Rat uterine membranes were prepared from fresh tissue. All procedures were carried out at 4° C. Uteri were stripped of fat and homogenized in phosphate-buffered saline at pH 7.4 containing 5 mM EDTA. The homogenate was centrifuged at 1500×g for 20 min., and the supernatant was recentrifuged at 100,000×g for 60 min. The pellet was resuspended in buffer consisting of 2 mM EDTA and 50 mM Tris-HCl (pH 7.5) to a final protein concentration of 4 mg/ml. Assay tubes were charged with 0.25 ml of a solution containing 5 mM MgCl2, 2 mM EDTA, 0.5% bovine serum albumin, 50 mM Tris-HCl, pH 7.5 and […] (approximately 10^5 cpm) in the absence or in the presence of unlabelled ligand. The reaction was initiated by the addition of membrane protein and the mixture was incubated at 25° C. for 60 min. The incubation was terminated with ice-cold 50 mM Tris-HCl (pH 7.5) and the mixture was filtered to separate membrane-bound labelled peptide from the free ligand. The incubation tube and filter were washed with ice-cold buffer. Filters were assayed for radioactivity in a Micromedic gamma counter. Nonspecific binding was defined as binding in the presence of 10 μM of unlabelled AII. Specific binding was calculated as total binding minus nonspecific binding. […] Binding data were analyzed by a nonlinear least-squares curve fitting program.

For a further series, the system named is rabbit aortic rings. Briefly: Assay B: In Vitro Vascular Smooth Muscle Response for AII (antagonist activity in rabbit aortic rings). It is filed as cell-based. To be noted: Oryctolagus cuniculus, test antagonist at 10^-5 M, AII contraction, read-out: Assay B pA2 (converted). The protocol:
Assay B: In Vitro Vascular Smooth Muscle-Response for AII
The compounds of the invention were tested for antagonist activity in rabbit aortic rings. Male New Zealand white rabbits (2-2.5 kg) were sacrificed using an overdose of pentobarbital and exsanguinated via the carotid arteries. The thoracic aorta was removed, cleaned of adherent fat and connective tissue and then cut into 3-mm ring segments. The endothelium was removed from the rings by gently sliding a rolled-up piece of filter paper into the vessel lumen. The rings were then mounted in a water-jacketed tissue bath, maintained at 37° C., between moveable and fixed ends of a stainless steel wire with the moveable end attached to an FT03 Grass transducer coupled to a Model 7D Grass Polygraph for recording isometric force responses. The bath was filled with 20 ml of oxygenated (95% oxygen/5% carbon dioxide) Krebs solution of the following composition (mM): 130 NaCl, 15 NaHCO3, […], 1.2 NaH2PO4, 1.2 MgSO4, 2.5 CaCl2, and 11.4 glucose. The preparations were equilibrated for one hour before approximately one gram of passive tension was placed on the rings. Angiotensin II concentration-response curves were then recorded (3×10^−10 to 1×10^−5 M). Each concentration of AII was allowed to elicit its maximal contraction, and then AII was washed out repeatedly for 30 minutes before rechallenging with a higher concentration of AII. Aorta rings were exposed to the test antagonist at 10^−5 M for 5 minutes before challenging with AII. Adjacent segments of the same aorta ring were used for all concentration-response curves in the presence or absence of the test antagonist. The effectiveness of the test compound was expressed in terms of pA2 values and were calculated according to H. O. Schild [Br. J. Pharmacol. Chemother., 2,189-206 (1947)]. The PA2 value is the concentration of the antagonist which increases the EC50 value for AII by a factor of two. Each test antagonist was evaluated in aorta rings from two rabbits.

The test system of another series is pressor response to AII. Nature of the series: Assay C: In Vivo Intragastric Pressor Assay Response for AII Antagonists. Set-up: species or system rat. To be noted: for Assay C Duration: Dose: 3 mg/kg (i.g.), Sprague-Dawley rats, AII challenges up to 180 minutes after gavage; for inhibition in vivo at 3 mg/kg: Rattus norvegicus, po. The protocol:
Assay C: In Vivo Intragastric Pressor Assay Response for AII Antagonists
Male Sprague-Dawley rats weighing 225-300 grams were anesthetized with methohexital (30 mg/kg, i.p.) and catheters were implanted into the femoral artery and vein. The catheters were tunneled subcutaneously to exit dorsally, posterior to the head and between the scapulae. The catheters were filled with heparin (1000 units/ml of saline). The rats were returned to their cage and allowed regular rat chow and water ad libitum. After full recovery from surgery (3-4 days), rats were placed in Lucite holders and the arterial line was connected to a pressure transducer. Arterial pressure was recorded on a Gould polygraph (mmHg). Angiotensin II was administered as a 30 ng/kg bolus via the venous catheter delivered in a 50 μl volume with a 0.2 ml saline flush. The pressor response in mm Hg was measured by the difference from pre-injection arterial pressure to the maximum pressure achieved. The AII injection was repeated every 10 minutes until three consecutive injections yielded responses within 4 mmHg of each other. These three responses were then averaged and represented the control response to AII. The test compound was suspended in 0.5% methylcellulose in water and was administered by gavage. The volume administered was 2 ml/kg body weight. The standard dose was 3 mg/kg. Angiotensin II bolus injections were given at 30, 45, 60, 75, 120, 150, and 180 minutes after gavage. The pressor response to AII was measured at each time point. The rats were then returned to their cage for future testing. A minimum of 3 days was allowed between tests. Percent inhibition was calculated for each time point following gavage by the following formula: [(Control Response−Response at time point)/Control Response]×100.

[2] abbreviates: first value of the pair (aorta rings from two rabbits).
The mark [3] stands for this setting: second value of the pair (aorta rings from two rabbits).

SMILES strings stand for the structures. Like-named read-outs stand apart in the source and are kept apart here.

For `CCCCc1cn(CC2CCCC2)c(=O)n1Cc1ccc(-c2ccccc2-c2nnn[nH]2)nc1` [Example 24, 1-cyclopentylmethyl-4-butyl-1,3-dihydro-3-[[6-[2-(1H-tetrazol-5-yl)phenyl]-3-pyridinyl]methyl]-2H-imidazol-2-one], the melting point (as a rule, the temperature of the solid-liquid transition) is 204 °C (dec.). Also, in series [1], the IC50 (commonly the concentration needed to halve the response being measured) was found to be 22 nM. In addition, the Kb in the series with rabbit aortic rings (setting [2]) is 0.646 nM. Further, the Kb in the series with rabbit aortic rings (setting [3]) is 2.04 nM. In addition, in the series with pressor response to AII, the “Assay C Duration” value was above 180 min and the inhibition in vivo (usually how much of the control response was suppressed) at 3 mg/kg came to 50%.

Regarding `CCCCc1cn(-c2ccccc2Cl)c(=O)n1Cc1ccc(-c2ccccc2-c2nnn[nH]2)nc1` [Example 32, 1-(2-chlorophenyl)-4-butyl-1,3-dihydro-3-[[6-[2-(1H-tetrazol-5-yl)phenyl]-3-pyridinyl]methyl]-2H-imidazol-2-one], the melting point lay within 81 to 83 °C. The IC50 in series [1] was determined as 5.4 nM. Moreover, the Kb with rabbit aortic rings (setting [2]) is 1.58 nM. Further, the Kb in the series on rabbit aortic rings (setting [3]) is 0.912 nM. Besides, in the series with pressor response to AII, the “Assay C Duration” value was above 180 min and the inhibition in vivo at 3 mg/kg stood at 50%.

Take `CCCCc1cn(C2CCCCC2)c(=O)n1Cc1ccc(-c2ccccc2-c2nnn[nH]2)nc1` [Example 21, 1-cyclohexyl-4-butyl-1,3-dihydro-3-[[6-[2-(1H-tetrazol-5-yl)phenyl]-3-pyridinyl]methyl]-2H-imidazol-2-one]: the melting point was 202 to 203 °C (dec.). In addition, the IC50 in series [1] is 20 nM. Besides, the Kb with rabbit aortic rings (setting [2]) was 0.724 nM. Besides, the Kb in the series on rabbit aortic rings (setting [3]) was 0.708 nM. In addition, in the series on pressor response to AII, the “Assay C Duration” value was above 180 min and the inhibition in vivo at 3 mg/kg came out at 40%.

As for `CCCCc1cn(CCC(C)C)c(=O)n1Cc1ccc(-c2ccccc2-c2nnn[nH]2)nc1` [Example 14, 1-isopentyl-4-butyl-1,3-dihydro-3-[[6-[2-(1H-tetrazol-5-yl)phenyl]-3-pyridinyl]methyl]-2H-imidazol-2-one], the melting point is 168.5 to 170 °C. Moreover, in series [1], the IC50 is 7.6 nM. Further, in the series with rabbit aortic rings (setting [2]), the Kb was 1.74 nM. Also, the Kb in the series with rabbit aortic rings (setting [3]) is 2.29 nM. In the series with pressor response to AII, the “Assay C Duration” value is above 180 min and at 3 mg/kg the inhibition in vivo was 35%.

For the compound `CCCCc1cn(CCCC)c(=O)n1Cc1ccc(-c2ccccc2-c2nnn[nH]2)nc1` [Example 1, 1,4-dibutyl-1,3-dihydro-3-[[6-[2-(1H-tetrazol-5-yl)phenyl]-3-pyridinyl]methyl]-2H-imidazol-2-one], the melting point lay in the range of 170 to 171 °C. In series [1], this compound had an IC50 of 6.5 nM. Also, the Kb in the series with rabbit aortic rings (setting [2]) was 1.51 nM. The Kb in the series on rabbit aortic rings (setting [3]) is 2.95 nM. In addition, in the series on pressor response to AII, the “Assay C Duration” value was above 180 min and the inhibition in vivo at 3 mg/kg was 50%.

With `CCCCc1cn(CC(CC)CC)c(=O)n1Cc1ccc(-c2ccccc2-c2nnn[nH]2)nc1` [Example 20, 1-(2-ethylbutyl)-4-butyl-1,3-dihydro-3-[[6-[2-(1H-tetrazol-5-yl)phenyl]-3-pyridinyl]methyl]-2H-imidazol-2-one], the melting point was 174 to 176 °C (dec.). Moreover, the half-maximal inhibitory concentration (IC50) in series [1] is 16 nM. The Kb in the series on rabbit aortic rings (setting [2]) is 0.676 nM. Moreover, the Kb in the series with rabbit aortic rings (setting [3]) is 1.38 nM. Moreover, in the series on pressor response to AII, the “Assay C Duration” value is above 180 min and the inhibition in vivo at 3 mg/kg was 75%.

`CCCCc1cn(CCC2CC2)c(=O)n1Cc1ccc(-c2ccccc2-c2nnn[nH]2)nc1` [Example 22, 1-(2-cyclopropylethyl)-4-butyl 1,3-dihydro3-[[6-[2-(1H-tetrazol-5-yl)phenyl]-3-pyridinyl]methyl]-2H-imidazol-2-one] showed a melting point of 182 to 183 °C. Besides, the IC50 in series [1] was found to be 5.4 nM. Also, in the series with rabbit aortic rings (setting [2]), the Kb is 1.78 nM. Also, the Kb in the series on rabbit aortic rings (setting [3]) is 1.29 nM. Also, in the series on pressor response to AII, the “Assay C Duration” value is above 180 min and the inhibition in vivo at 3 mg/kg was determined as 30%.

`CCCCc1cn(CCc2cccs2)c(=O)n1Cc1ccc(-c2ccccc2-c2nnn[nH]2)nc1` [Example 25, 1-[2-(2-thienyl)ethyl]-4-butyl-1,3-dihydro-3-[[6-[2-(1H-tetrazol-5-yl)phenyl]-3-pyridinyl]methyl]-2H-imidazol-2-one]: the melting point is 137 to 138 °C. In series [1], this compound displayed an IC50 of 5 nM. Also, the Kb in the series with rabbit aortic rings (setting [2]) was 0.389 nM. The Kb with rabbit aortic rings (setting [3]) was 0.692 nM. In the series on pressor response to AII, the “Assay C Duration” value was above 180 min and the inhibition in vivo at 3 mg/kg came out at 25%.

With `CCCCc1cn(CC(C)(C)C)c(=O)n1Cc1ccc(-c2ccccc2-c2nnn[nH]2)nc1` [Example 18, 1-neopentyl-4-butyl-1,3-dihydro-3-[[6-[2-(1H-tetrazol-5-yl)phenyl]-3-pyridinyl]methyl]-2H-imidazol-2-one], the melting point fell in the range of 194.5 to 195 °C. The same compound displayed an IC50 in series [1] of 12 nM. The Kb with rabbit aortic rings (setting [2]) was 1.62 nM. In addition, the Kb in the series with rabbit aortic rings (setting [3]) was 2.29 nM. In addition, in the series on pressor response to AII, the “Assay C Duration” value was above 180 min and the inhibition in vivo at 3 mg/kg amounted to 65%.

Regarding `CCCCCc1cn(CCCC)c(=O)n1Cc1ccc(-c2ccccc2-c2nnn[nH]2)nc1` [Example 6, 1-butyl-4-yl-1,3-dihydro-3-[[6-[2-(1H-tetrazol-5-yl)phenyl]-3-pyridinyl]methyl]-2H-imidazol-2-one], the melting point was 176 to 177 °C. Moreover, the IC50 in series [1] amounted to 10 nM. For the same compound, the Kb in the series with rabbit aortic rings (setting [2]) is 13.5 nM. The Kb in the series with rabbit aortic rings (setting [3]) was 12.9 nM. Moreover, in the series on pressor response to AII, the “Assay C Duration” value was found to be 180 min and 3 mg/kg produced 10% inhibition in vivo.

With `CCCCCn1cc(CCCC)n(Cc2ccc(-c3ccccc3-c3nnn[nH]3)nc2)c1=O` [Example 15, 1-pentyl-4-butyl-1,3-dihydro-3-[[6-[2-(1H-tetrazol-5-yl)phenyl]-3-pyridinyl]methyl]-2H-imidazol-2-one], the melting point was 162 to 164 °C. In series [1], this compound had an IC50 of 10 nM. Also, the Kb in the series on rabbit aortic rings (setting [2]) is 1.62 nM. For the same compound, the Kb in the series with rabbit aortic rings (setting [3]) was 1.41 nM. In the series with pressor response to AII, the “Assay C Duration” value is above 180 min and the inhibition in vivo at 3 mg/kg came to 60%.
